Reference: US4242262A, “9-Nitromethyldeoxyclavulanic acid derivatives preparation and compositions” (Beecham Group Limited, priority 1977, dated 1980)

Experiments:
[1] = test system: Kleb. E 70; assay: MIC of ampicillin alone or with compound of the Example, Kleb. E 70; assay type: cell-based
[2] = test system: Proteus C 889; assay: MIC of ampicillin alone or with compound of the Example, Proteus C 889; assay type: cell-based
[3] = table 2 (no quantity or unit in head), Ampicillin alone

With `CC1(C)S[C@@H]2[C@H](NC(=O)[C@H](N)c3ccccc3)C(=O)N2[C@H]1C(=O)O` [Ampicillin] the MIC ([1]; table 1, Ampicillin alone) was greater than 500 µg/mL, the MIC [1, 3] was 22 500 and the MIC ([2]; table 1, Ampicillin alone) was greater than 500 mg/L. For the same molecule, the MIC [2, 3] was greater than 500 mg/L.
